Measurements as given in patent US9862676B2, “Hydroxamic acid derivative or salt thereof” (TOYAMA CHEMICAL CO., LTD., priority 2013, dated 2018).
pIC50: −log10 of the molar value. In brackets after ≈: the same amount, converted by molar mass.

How the values were obtained:
[1] = target: T1, Pseudomonas aeruginosa LpxC enzyme (Pseudomonas aeruginosa, UniProt P47205); assay: Test to evaluate Pseudomonas aeruginosa LpxC enzyme inhibitory activity; format: biochemical
T1 construct: made in house; host or cells: Escherichia coli
T1 sequence (P47205 1-303): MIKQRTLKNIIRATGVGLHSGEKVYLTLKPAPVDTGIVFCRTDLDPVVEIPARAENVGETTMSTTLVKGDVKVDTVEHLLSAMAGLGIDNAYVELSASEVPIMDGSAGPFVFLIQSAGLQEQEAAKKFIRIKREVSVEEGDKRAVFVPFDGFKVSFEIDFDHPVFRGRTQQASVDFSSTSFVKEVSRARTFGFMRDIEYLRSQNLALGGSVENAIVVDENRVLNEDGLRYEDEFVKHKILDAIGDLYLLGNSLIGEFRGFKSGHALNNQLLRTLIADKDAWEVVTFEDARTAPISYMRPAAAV
Protocol: The Pseudomonas aeruginosa LpxC enzyme activity was measured by reacting LpxC with its substrate UDP-3-O—(R-3-hydroxydecanoyl)-N-acetylglucosamine and measuring the amount of the reaction product by the quantification of an amino group present in the product. This measurement was carried out according to a method described in, for example, International Publication No. WO 11/132712 pamphlet or a method similar thereto.
Specifically, to the Pseudomonas aeruginosa LpxC enzyme (which was obtained by preparing chromosomal DNA from Pseudomonas aeruginosa, obtaining the Pseudomonas aeruginosa LpxC gene by PCR (polymerase chain reaction) using LpxC-specific primers, and incorporating this gene into a vector, followed by gene expression using Escherichia coli), 20 μmol/L UDP-3-O—(R-3-hydroxydecanoyl)-N-acetylglucosamine (Wako Pure Chemical Industries, Ltd.) was added, and the mixture was incubated at 25° C. for 1 hour. This reaction was carried out in a 40 mmol/L HEPES buffer solution (pH 8.0) containing 0.02% Brij 35 and 80 μmol/L dithiothreitol. The reaction was terminated by the addition of 20% acetic acid (final concentration: 0.95%) to the reaction solution. Then, fluorescamine (final concentration: 1.6 mg/mL) dissolved in anhydrous dioxane was added thereto. The amount of the reaction product was detected at an excitation wavelength/fluorescence wavelength=390 nm/495 nm. Each test compound was allowed to coexist at various concentrations in the reaction to obtain an inhibition curve.

[2] = system: Pseudomonas aeruginosa ATCC27853 strain; assay: Antibacterial activity, MIC by broth microdilution (CLSI); format: cell-based
Protocol: (§1) The minimum inhibitory concentration (MIC) was measured according to the CLSI (Clinical and Laboratory Standards Institute) standard method using a broth microdilution method given below. The bacteria used were a Pseudomonas aeruginosa ATCC27853 strain, an Escherichia coli ATCC25922 strain and a Klebsiella pneumoniae ATCC13883 strain. Test bacterial cells of each strain cultured overnight in a Mueller-Hinton agar medium were scraped off and suspended at the McFarland 0.5 standard, and this suspension was diluted 10-fold to prepare an inoculum solution. The inoculum solution (0.005 mL) was inoculated to a cation-adjusted Mueller-Hinton medium containing each test compound and cultured at 35° C. for 16 to 20 hours. The minimum drug concentration at which bacterial growth was not visible to the naked eye was defined as MIC.

[3] = Test on inhibition of Vero cell growth (XTT); format: cell-based; details: African green monkey, Vero cells, 3 days culture, read-out: CC50 (concentration inhibiting 50% of cell growth)
Protocol: Each test compound was dissolved in dimethyl sulfoxide, adjusted to each concentration using E'MEM, and then dispensed at 0.1 mL/well to 96-well microplates. The Vero cell suspension was prepared at 3×10^4 cells/mL using E'MEM supplemented with 20% FBS, inoculated thereto at 0.1 mL/well, and cultured at 37° C. for 3 days under 5% CO2. At the completion of the culture, PBS supplemented with 1 mg/mL 2,3-bis-(2-methoxy-4-nitro-5-sulfophenyl)-5-((phenylamino)carbonyl)-2H-tetrazolium inner salt monosodium salt (XTT) and 25 μM phenazine methosulfate (PMS) was prepared and added thereto at 50 μL/well. Approximately 2 hours later, the absorbance at 450 nm was measured using a microplate reader.

[4] = system: Escherichia coli ATCC25922 strain; assay: Antibacterial activity, MIC by broth microdilution (CLSI); format: cell-based
Protocol: as §1

[5] = system: Klebsiella pneumoniae ATCC13883 strain; assay: as above; format: cell-based
Protocol: as §1

pIC50 [1] | MIC [2] | MIC [4] | MIC [5] | SMILES | CC50 at 3 days [3]
– | – | 0.25 µg/mL | 0.5 µg/mL | CNC(=O)[C@@](C)(C(=O)NO)N(C)C(=O)c1ccc(C#Cc2ccc(COCCOC(C)=O)cc2)cc1 [Example 4, 2-((4-((4-((((1S)-2-(hydroxyamino)-1-methyl-1-((methylamino)carbonyl)-2-oxoethyl)(methyl)amino)carbonyl)phenyl)ethynyl)benzyl)oxy)ethyl acetate] | ≥ 100 µg/mL
– | 1 µg/mL (≈ 2.08 µM) | 0.25 µg/mL (≈ 0.519 µM) | 0.5 µg/mL (≈ 1.04 µM) | CNC(=O)[C@@](C)(C(=O)NO)N(C)C(=O)c1ccc(C#Cc2ccc(COCC(C)(C)O)cc2)cc1 [Example 7, (2S)—N-hydroxy-2-((4-((4-((2-hydroxy-2-methylpropoxy)methyl)phenyl)ethynyl)benzoyl)(methyl)amino)-N′,2-dimethyl-malonamide] | ≥ 100 µg/mL
– | 1 µg/mL (≈ 2.14 µM) | 0.25 µg/mL (≈ 0.535 µM) | 1 µg/mL (≈ 2.14 µM) | CNC(=O)[C@@](C)(C(=O)NO)N(C)C(=O)c1ccc(C#Cc2ccc(CO[C@@H](C)CO)cc2)cc1 [Example 8, (2S)—N-hydroxy-2-((4-((4-(((1S)-2-hydroxy-1-methylethoxy)methyl)phenyl)ethynyl)benzoyl)(methyl)amino)-N′,2-dimethylmalonamide] | ≥ 100 µg/mL
– | 1 µg/mL (≈ 2.14 µM) | 0.25 µg/mL (≈ 0.535 µM) | 0.5 µg/mL (≈ 1.07 µM) | CNC(=O)[C@@](C)(C(=O)NO)N(C)C(=O)c1ccc(C#Cc2ccc(CO[C@H](C)CO)cc2)cc1 [Example 10, (2S)—N-hydroxy-2-((4-((4-(((1R)-2-hydroxy-1-methylethoxy)methyl)phenyl)ethynyl)benzoyl)(methyl)amino)-N′,2-dimethyl-malonamide] | ≥ 100 µg/mL
– | – | 0.0625 µg/mL (≈ 0.134 µM) | 0.5 µg/mL (≈ 1.07 µM) | CNC(=O)[C@@](C)(C(=O)NO)N(C)C(=O)c1ccc(C#Cc2ccc(COC3COC3)cc2)cc1 [Example 11, (2S)—N-hydroxy-N′,2-dimethyl-2-(methyl(4-((4-((oxetan-3-yloxy)methyl)phenyl)ethynyl)benzoyl)amino)malonamide] | –
– | 1 µg/mL (≈ 2.22 µM) | 0.0625 µg/mL (≈ 0.139 µM) | 0.125 µg/mL (≈ 0.278 µM) | CNC(=O)[C@@](C)(C(=O)NO)N(C)C(=O)c1ccc(C#Cc2ccc(/C=C/COC)cc2)cc1 [Example 12, (2S)—N-hydroxy-2-((4-((4-((1E)-3-methoxy-1-propen-1-yl)phenyl)ethynyl)benzoyl)(methyl)amino)-N′,2-dimethyl-malonamide] | –
– | 1 µg/mL (≈ 2.21 µM) | 0.25 µg/mL (≈ 0.551 µM) | 1 µg/mL (≈ 2.21 µM) | CNC(=O)[C@@](C)(C(=O)NO)N(C)C(=O)c1ccc(C#Cc2ccc(C(O)COC)cc2)cc1 (stereo partly drawn) [Example 13, (2S)—N-hydroxy-2-((4-((4-(1-hydroxy-2-methoxyethyl)phenyl)ethynyl)benzoyl)(methyl)amino)-N′,2-dimethyl-malonamide] | ≥ 100 µg/mL
> 7.30 | 1 µg/mL (≈ 2.36 µM) | 0.25 µg/mL (≈ 0.59 µM) | 1 µg/mL (≈ 2.36 µM) | CNC(=O)[C@@](C)(C(=O)NO)N(C)C(=O)c1ccc(C#Cc2ccc(C(C)O)cc2)cc1 (stereo partly drawn) [Example 16, (2S)—N-hydroxy-2-((4-((4-(1-hydroxyethyl)phenyl)ethynyl)benzoyl)(methyl)amino)-N′,2-dimethyl-malonamide] | –
> 7.30 | 1 µg/mL (≈ 2.21 µM) | – | – | CNC(=O)[C@@](C)(C(=O)NO)N(C)C(=O)c1ccc(C#Cc2ccc(C(O)CCO)cc2)cc1 (stereo partly drawn) [Example 17, (2S)-2-((4-((4-(1,3-dihydroxypropyl)phenyl)ethynyl)benzoyl)(methyl)amino)-N-hydroxy-N′,2-dimethylmalonamide] | ≥ 100 µg/mL
> 7.30 | 1 µg/mL (≈ 2.07 µM) | 0.5 µg/mL (≈ 1.03 µM) | – | CNC(=O)[C@@](C)(C(=O)NO)N(C)C(=O)c1ccc(C#Cc2ccc([C@H](O)COCCO)cc2)cc1 [Example 24, (2S)—N-hydroxy-2-((4-((4-((1S)-1-hydroxy-2-(2-hydroxyethoxy)ethyl)phenyl)ethynyl)benzoyl)(methyl)amino)-N′,2-dimethyl-malonamide] | ≥ 100 µg/mL
> 7.30 | 0.5 µg/mL (≈ 1.1 µM) | 0.5 µg/mL (≈ 1.1 µM) | – | CNC(=O)[C@@](C)(C(=O)NO)N(C)C(=O)c1ccc(C#Cc2ccc([C@H](O)CCO)cc2)cc1 [Example 25, (2S)-2-((4-((4-((1R)-1,3-dihydroxypropyl)phenyl)ethynyl)benzoyl)(methyl)amino)-N-hydroxy-N′,2-dimethyl-malonamide] | ≥ 100 µg/mL
– | – | 0.5 µg/mL (≈ 1 µM) | – | CNC(=O)[C@@](C)(C(=O)NO)N(C)C(=O)c1ccc(C#Cc2ccc([C@H](O)COCCCO)cc2)cc1 [Example 28, (2S)—N-hydroxy-2-((4-((4-((1S)-1-hydroxy-2-(3-hydroxypropoxy)ethyl)phenyl)ethynyl)benzoyl)(methyl)amino)-N′,2-dimethyl-malonamide] | ≥ 100 µg/mL
– | – | 0.125 µg/mL (≈ 0.267 µM) | 0.5 µg/mL (≈ 1.07 µM) | CCOC[C@@H](O)c1ccc(C#Cc2ccc(C(=O)N(C)[C@@](C)(C(=O)NC)C(=O)NO)cc2)cc1 [Example 29, (2S)-2-((4-((4-((1S)-2-ethoxy-1-hydroxyethyl)phenyl)ethynyl)benzoyl)(methyl)amino)-N-hydroxy-N′,2-dimethyl-malonamide] | ≥ 100 µg/mL
– | – | 0.5 µg/mL (≈ 1.1 µM) | 1 µg/mL (≈ 2.21 µM) | CNC(=O)[C@@](C)(C(=O)NO)N(C)C(=O)c1ccc(C#Cc2ccc([C@@H](O)COC)cc2)cc1 [Example 31, (2S)—N-hydroxy-2-((4-((4-((1R)-1-hydroxy-2-methoxyethyl)phenyl)ethynyl)benzoyl)(methyl)amino)-N′,2-dimethyl-malonamide] | ≥ 100 µg/mL
> 7.30 | 1 µg/mL (≈ 2.21 µM) | 0.5 µg/mL (≈ 1.1 µM) | – | CNC(=O)[C@@](C)(C(=O)NO)N(C)C(=O)c1ccc(C#Cc2ccc([C@H](O)[C@H](C)O)cc2)cc1 [Example 33, (2S)-2-((4-((4-((1S,2S)-1,2-dihydroxypropyl)phenyl)ethynyl)benzoyl)(methyl)amino)-N-hydroxy-N′,2-dimethylmalonamide] | ≥ 100 µg/mL
– | 1 µg/mL (≈ 2.21 µM) | 0.5 µg/mL (≈ 1.1 µM) | – | CNC(=O)[C@@](C)(C(=O)NO)N(C)C(=O)c1ccc(C#Cc2ccc([C@H](O)[C@@H](C)O)cc2)cc1 [Example 34, (2S)-2-((4-((4-((1S,2R)-1,2-dihydroxypropyl)phenyl)ethynyl)benzoyl)(methyl)amino)-N-hydroxy-N′,2-dimethyl-malonamide] | ≥ 100 µg/mL
> 7.30 | 1 µg/mL (≈ 2.14 µM) | – | 1 µg/mL (≈ 2.14 µM) | CNC(=O)[C@@](C)(C(=O)NO)N(C)C(=O)c1ccc(C#Cc2ccc(C(O)CCCO)cc2)cc1 (stereo partly drawn) [Example 35, (2S)-2-((4-((4-(1,4-dihydroxybutyl)phenyl)ethynyl)benzoyl)(methyl)amino)-N-hydroxy-N′,2-dimethyl-malonamide] | ≥ 100 µg/mL
– | 1 µg/mL (≈ 2.36 µM) | 0.125 µg/mL (≈ 0.295 µM) | 0.5 µg/mL (≈ 1.18 µM) | CNC(=O)[C@@](C)(C(=O)NO)N(C)C(=O)c1ccc(C#Cc2ccc([C@@H](C)O)cc2)cc1 [Example 37, (2S)—N-hydroxy-2-((4-((4-((1R)-1-hydroxyethyl)phenyl)ethynyl)benzoyl)(methyl)amino)-N′,2-dimethyl-malonamide] | –

SMILES | pIC50 [1] | MIC [2] | MIC [4] | MIC [5] | CC50 at 3 days [3]
CNC(=O)[C@@](C)(C(=O)NO)N(C)C(=O)c1ccc(C#Cc2ccc(C(O)CO)cc2)cc1 (stereo partly drawn) [Example 3, (2S)-2-((4-((4-(1,2-dihydroxyethyl)phenyl)ethynyl)benzoyl)(methyl)amino)-N-hydroxy-N′,2-dimethyl-malonamide] | > 7.30 | 1 µg/mL (≈ 2.28 µM) | – | – | ≥ 100 µg/mL
